Measured values as given in patent publication US10947213B1 (Merck Patent GmbH, priority 2015, dated 2021).
Counter-ions that a name gives are not always drawn.

Biological target: T1, TLR7/NFKb HEK cells (Homo sapiens, UniProt Q9NYK1)
T1 construct: expressed in transfected cells; host or cells: HEK cells (TLR7/NFKb reporter line)
T1 sequence (Q9NYK1 27-1049): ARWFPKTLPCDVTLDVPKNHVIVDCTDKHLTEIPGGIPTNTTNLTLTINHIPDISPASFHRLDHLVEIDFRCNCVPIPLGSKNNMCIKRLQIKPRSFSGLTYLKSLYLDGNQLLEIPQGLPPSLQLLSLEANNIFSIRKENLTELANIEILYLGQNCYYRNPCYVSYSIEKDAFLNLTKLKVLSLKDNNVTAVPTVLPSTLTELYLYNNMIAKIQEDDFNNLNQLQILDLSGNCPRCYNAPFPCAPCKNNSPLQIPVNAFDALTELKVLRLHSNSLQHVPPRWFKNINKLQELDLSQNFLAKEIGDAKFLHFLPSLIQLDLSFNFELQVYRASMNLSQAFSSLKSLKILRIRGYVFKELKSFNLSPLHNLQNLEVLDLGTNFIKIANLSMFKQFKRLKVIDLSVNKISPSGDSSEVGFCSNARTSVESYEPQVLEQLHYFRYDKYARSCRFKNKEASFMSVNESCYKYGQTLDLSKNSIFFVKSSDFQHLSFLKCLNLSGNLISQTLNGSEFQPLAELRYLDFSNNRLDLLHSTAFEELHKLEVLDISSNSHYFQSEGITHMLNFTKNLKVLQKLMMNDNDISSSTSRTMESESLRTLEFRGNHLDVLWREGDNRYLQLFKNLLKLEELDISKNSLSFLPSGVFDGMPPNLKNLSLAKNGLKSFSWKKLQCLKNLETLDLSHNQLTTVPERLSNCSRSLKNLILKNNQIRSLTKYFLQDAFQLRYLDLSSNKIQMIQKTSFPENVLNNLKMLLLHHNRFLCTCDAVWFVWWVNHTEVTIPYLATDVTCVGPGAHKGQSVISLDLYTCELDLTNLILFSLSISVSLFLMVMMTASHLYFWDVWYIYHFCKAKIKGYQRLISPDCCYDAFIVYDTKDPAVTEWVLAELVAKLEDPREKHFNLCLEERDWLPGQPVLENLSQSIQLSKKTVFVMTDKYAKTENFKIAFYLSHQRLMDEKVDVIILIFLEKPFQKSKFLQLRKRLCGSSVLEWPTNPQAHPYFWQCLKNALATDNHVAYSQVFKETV
Experiment: HEK Cell Assay (TLR7/NFKb reporter, Steady-Glo luciferase readout)
Type: cell-based
Details: 30 min compound preincubation, then R*48 agonist for 5 hours, read-out: Potency
How it was run: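 Steady-Glo luminescence after 5 h stimulation with R*48 agonist, following 30 min compound preincubation. Assay run in HEK cells carrying a TLR7/NFKb luciferase reporter, plated at 5000 cells/well and grown 24 h at 37° C (10% CO2) before treatment.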

Row | SMILES | IC50
1 | CC1CC(C(=O)N2CCN(C)CC2)CN(c2ccc(C(F)(F)F)c3ncccc23)C1 (stereo not drawn) [Compound 549, (4-Methyl-piperazin-1-yl)-[5-methyl-1-(8-trifluoromethyl-quinolin-5-yl)-piperidin-3-yl]-methanone] | 1000 to 10000 nM
2 | Cc1ncc(N2C[C@@H](C)C[C@@H](NC(=O)CC(C)(C)O)C2)c2cccnc12 [Compound 555, 3-Hydroxy-3-methyl-N-[(3R,5S)-5-methyl-1-(8-methyl-[1,7]naphthyridin-5-yl)-piperidin-3-yl]-butyramide] | 1000 to 10000 nM
3 | Cc1ncc(N2C[C@@H](C)C[C@@H](NC(=O)CC3CN(C)C3)C2)c2cccnc12 [Compound 556, 2-(1-Methyl-azetidin-3-yl)-N-[(3R,5S)-5-methyl-1-(8-methyl-[1,7]naphthyridin-5-yl)-piperidin-3-yl]-acetamide] | 1000 to 10000 nM
4 | Cc1ncc(N2C[C@@H](C)C[C@@H](NC(=O)CC3CN(C(=O)OC(C)(C)C)C3)C2)c2cccnc12 [Compound 557, 3-{[(3R,5S)-5-Methyl-1-(8-methyl-[1,7]naphthyridin-5-yl)-piperidin-3-ylcarbamoyl]-methyl}-azetidine-1-carboxylic Acid tert-butyl ester] | 1000 to 10000 nM
5 | Cc1ncc(N2C[C@@H](C)C[C@@H](NC(=O)[C@H](O)C3CC3)C2)c2cccnc12 [Compound 558, (R)-2-Cyclopropyl-2-hydroxy-N-[(3R,5S)-5-methyl-1-(8-methyl-[1,7]naphthyridin-5-yl)-piperidin-3-yl]-acetamide] | 1000 to 10000 nM
6 | Cc1ncc(N2C[C@@H](C)C[C@@H](NC(=O)[C@@H](O)C3CC3)C2)c2cccnc12 [Compound 559, (S)-2-Cyclopropyl-2-hydroxy-N-[(3R,5S)-5-methyl-1-(8-methyl-[1,7]naphthyridin-5-yl)-piperidin-3-yl]-acetamide] | 1000 to 10000 nM
7 | Cc1ncc(N2C[C@@H](C)C[C@@H](NC(=O)CC3(N)CCCCC3)C2)c2cccnc12 [Compound 563, 2-(1-Amino-cyclohexyl)-N-[(3R,5S)-5-methyl-1-(8-methyl-[1,7]naphthyridin-5-yl)-piperidin-3-yl]-acetamide] | < 1000 nM
8 | Cc1ncc(N2C[C@@H](C)C[C@@H](NC(=O)CCC(N)=O)C2)c2cccnc12 [Compound 564, N-[(3R,5S)-5-Methyl-1-(8-methyl-[1,7]naphthyridin-5-yl)-piperidin-3-yl]-succinamide] | > 10000 nM
9 | CNC(=O)CCC(=O)N[C@@H]1C[C@H](C)CN(c2cnc(C)c3ncccc23)C1 [Compound 565, N-Methyl-N′-[(3R,5S)-5-methyl-1-(8-methyl-[1,7]naphthyridin-5-yl)-piperidin-3-yl]-succinamide] | 1000 to 10000 nM
10 | Cc1ncc(N2C[C@@H](C)C[C@@H](NC(=O)CCC(=O)N3CCC3)C2)c2cccnc12 [Compound 566, 4-Azetidin-1-yl-N-[(3R,5S)-5-methyl-1-(8-methyl-[1,7]naphthyridin-5-yl)-piperidin-3-yl]-4-oxo-butyramide] | 1000 to 10000 nM
11 | Cc1ncc(N2C[C@@H](C)C[C@@H](NC(=O)CCC(=O)O)C2)c2cccnc12 [Compound 567, N-[(3R,5S)-5-Methyl-1-(8-methyl-[1,7]naphthyridin-5-yl)-piperidin-3-yl]-succinamic acid] | > 10000 nM
12 | C[C@H]1C[C@@H](NCC(=O)N2CCC2)CN(c2ccc(C(F)(F)F)c3ncccc23)C1 [Compound 568, 1-Azetidin-1-yl-2-[(3R,5S)-5-methyl-1-(8-trifluoromethyl-quinolin-5-yl)-piperidin-3-ylamino]-ethanone] | < 1000 nM
13 | CNC(=O)CN[C@@H]1C[C@H](C)CN(c2ccc(C(F)(F)F)c3ncccc23)C1 [Compound 569] | < 1000 nM
14 | C[C@H]1C[C@@H](NCC(N)=O)CN(c2ccc(C(F)(F)F)c3ncccc23)C1 [Compound 570] | < 1000 nM

Other lines, results leading:

Row | IC50 | SMILES
15 | < 1000 nM | CN1CCC(NC(=O)C2CN(c3ccc(C#N)c4nccnc34)CC(F)(F)C2)CC1 (stereo not drawn) [Compound 529, 1-(8-Cyano-quinoxalin-5-yl)-5,5-difluoro-piperidine-3-carboxylic acid (1-methyl-piperidin-4-yl)-amide]
16 | < 1000 nM | CN1CCC(NC(=O)C2CN(c3ccc(C#N)c4ncccc34)CC(F)(F)C2)CC1 (stereo not drawn) [Compound 530, 1-(8-Cyano-quinolin-5-yl)-5,5-difluoro-piperidine-3-carboxylic acid (1-methyl-piperidin-4-yl)-amide]
17 | < 1000 nM | CN1CCC(CNC(=O)C2CN(c3ccc(C#N)c4ncccc34)CC(F)(F)C2)CC1 (stereo not drawn) [Compound 531, 1-(8-Cyano-quinolin-5-yl)-5,5-difluoro-piperidine-3-carboxylic Acid (1-methyl-piperidin-4-ylmethyl)-amide]
18 | < 1000 nM | CCN1CCC(NC(=O)C2CN(c3ccc(C#N)c4ncccc34)CC(F)(F)C2)CC1 (stereo not drawn) [Compound 532, 1-(8-Cyano-quinolin-5-yl)-5,5-difluoro-piperidine-3-carboxylic Acid (1-ethyl-piperidin-4-yl)-amide]
19 | < 1000 nM | CC1CC(C(=O)NCC2CCN(C)CC2)CN(c2ccc(C#N)c3nccnc23)C1 (stereo not drawn) [Compound 539, 1-(8-Cyano-quinoxalin-5-yl)-5-methyl-piperidine-3-carboxylic acid (1-methyl-piperidin-4-ylmethyl)-amide]
20 | < 1000 nM | CCN1CCC(NC(=O)C2CC(C)CN(c3ccc(C#N)c4nccnc34)C2)CC1 (stereo not drawn) [Compound 540, 1-(8-Cyano-quinoxalin-5-yl)-5-methyl-piperidine-3-carboxylic acid (1-ethyl-piperidin-4-yl)-amide]
21 | < 1000 nM | CC1CC(C(=O)NC2CCCN(C)C2)CN(c2ccc(C#N)c3nccnc23)C1 (stereo not drawn) [Compound 543, cis-1-(8-cyanoquinoxalin-5-yl)-5-methyl-N-(1-methyl-3-piperidyl) piperidine-3-carboxamide]
22 | < 1000 nM | C[C@H]1C[C@@H](N)CN(c2ccc(C#N)c3nsnc23)C1 [Compound 552, 7-((3R,5S)-3-Amino-5-methyl-piperidin-1-yl)-benzo[1,2,5]thiadiazole-4-carbonitrile hydrochloride]
23 | < 1000 nM | Cc1ncc(N2C[C@@H](C)C[C@@H](N)C2)c2cccnc12 [Compound 553, (3R,5S)-5-methyl-1-(8-methyl-1,7-naphthyridin-5-yl)piperidin-3-amine]
24 | < 1000 nM | Cc1ncc(N2C[C@@H](C)C[C@@H](NC(=O)CC3CCN(C)CC3)C2)c2cccnc12 [Compound 554, N-[(3R,5S)-5-Methyl-1-(8-methyl-[1,7]naphthyridin-5-yl)-piperidin-3-yl]-2-(1-methyl-piperidin-4-yl)-acetamide]
25 | < 1000 nM | Cc1ncc(N2C[C@@H](C)C[C@@H](NC(=O)CC3CCN(C)C3)C2)c2cccnc12 (stereo partly drawn) [Compound 560, N-[(3R,5S)-5-Methyl-1-(8-methyl-[1,7]naphthyridin-5-yl)-piperidin-3-yl]-2-(1-methyl-pyrrolidin-3-yl)-acetamide]
26 | < 1000 nM | Cc1ncc(N2C[C@@H](C)C[C@@H](NC(=O)[C@H](N)C3CC3)C2)c2cccnc12 [Compound 561, (R)-2-Amino-2-cyclopropyl-N-[(3R,5S)-5-methyl-1-(8-methyl-[1,7]naphthyridin-5-yl)-piperidin-3-yl]-acetamide]
27 | < 1000 nM | Cc1ncc(N2C[C@@H](C)C[C@@H](NC(=O)[C@@H](N)C3CC3)C2)c2cccnc12 [Compound 562, (S)-2-Amino-2-cyclopropyl-N-[(3R,5S)-5-methyl-1-(8-methyl-[1,7]naphthyridin-5-yl)-piperidin-3-yl]-acetamide]
